Where a name gives a salt, the structure may show the parent alone. Read-outs that look alike come from different tables or passages of the source. Marks after values point to notes of the source that are not given here. Where a SMILES comes first, the peptide text is derived from it. Bridges are numbered along the chain shown (N, C = ends). [ ]: non-standard residue; d: D form. The star is where a group is joined. ξ: configuration not given here. Thr(3ξ) = CC(O)[C@H](N)C(=O)O; Dab = NCC[C@H](N)C(=O)O; X1 = CCCCCCC(O)C(=O)*; GABA = NCCCC(=O)O
Legend:
HK-2 cell line = conditions: 24 h incubation, resazurin reduction; Table 7
Method: The renal cell toxicity of the compounds was assessed in an in vitro assay using the HK-2 cell line, an immortalized proximal tubule cell line derived from a normal human kidney. The endpoint to describe the toxicity of the compounds was the reduction of resazurin correlating with the metabolic activity of the cells.
Cells were cultured in 150 cm^2 flasks in 25 mL supplemented KSF (with 5 ng/mL EGF and 50 μg/mL BPE). Cells were maintained at 70% confluence with a maximum of 25 passages. Day 1: Media was removed and cells were washed with 10 ml DPBS. […] After 1 to 2 minutes incubation, 14 ml media was added to the flask to inactivate the trypsin. The cell suspension was transferred to a centrifuge tube and the cells pelleted at 1000 rpm for 6 minutes. The cell pellet was then resuspended in fresh media supplemented with EGF and BPE. […] 7500 cells were dispensed in each well in a volume of 160 μl and incubated at 37° C. for 24 h.
Day 2: Test compounds were prepared directly into the media. […] The microtiter plates were removed from the incubator and the media replaced with 100 μl of the dilutions of the compound solution. Every set of concentration was done in triplicate, and positive and negative controls were added to each plate. The plates were then incubated for 24 h at 37° C. with 5% CO2 in a humidified atmosphere.
Day 3: The reagent containing the resazurin (CellTiter-Blue, Promega) was diluted in PBS (1:4) and added at 20% (v/v) to each well. The plates were then incubated at 37° C. for 2 h before the fluorescent reduction product was detected.
Media only background values were subtracted before the data was analysed using GraphPad Prism. Compound concentration values were plotted as log values to enable a dose-response curve to be fitted and IC50 values determined (Table 7).
The renal cell toxicity of the additional example compounds was assessed in an in vitro assay using the HK-2 cell as described in the example above.

[1] = tested on: E. coli clinical isolates and resistant strains; assay type: cell-based; conditions: clinical isolates and resistant strains
Method: (§1) The in vitro antibacterial activities of the compounds of examples 2 and 6 were evaluated against a panel of […] Gram-negative bacterial isolates alongside Colistin. The panel consisted of 100 clinical isolates of each of A. baumannii, E. coli, K. pneumoniae and P. aeruginosa. The panel represented the current epidemiology in Europe and the USA and included a number of relevant strains with defined resistant phenotypes to current clinically-used antibacterial agents. These resistant strains included 20 A. baumannii, 22 E. coli, 25 K. pneumoniae and 20 P. aeruginosa strains.
(§2) All compounds were tested up to a maximum concentration of 64 μg/mL with the exception of colistin, which was evaluated up to a maximum concentration of 16 μg/mL.

[2] = tested on: P. aeruginosa clinical isolates and resistant strains; assay type: cell-based; conditions: clinical isolates and resistant strains
Method: as §1, §2

[3] = tested on: K. pneumoniae clinical isolates and resistant strains; assay type: cell-based; conditions: clinical isolates and resistant strains
Method: as §1, §2

[4] = tested on: A. baumannii clinical isolates and resistant strains; assay type: cell-based; conditions: clinical isolates and resistant strains
Method: as §1, §2

A. baumannii ATCCBAA-747 = assay: MIC susceptibility testing, broth microdilution in CaMHB; assay type: cell-based, Acinetobacter baumannii
Method in brief: (§3)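 Colonies from fresh MHA grown overnight in CaMHB at 37° C, 250 rpm for 18-20 hours, diluted 100-fold and regrown to OD600 0.2-0.3 […]. Actively growing culture diluted 100-fold in fresh medium as inoculum; assays run in duplicate.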

A. baumannii NCTC13423 = assay: as above; assay type: cell-based, Acinetobacter baumannii
Method in brief: as §3

[5] = tested on: Escherichia coli isolate ATCC25922; assay type: in vivo; conditions: thigh
Method: Groups of 5 female specific-pathogen-free CD-1 mice weighing 22±2 g were used. The animals were made neutropenic by intraperitoneal administration of cyclophosphamide on days −4 (150 mg/kg) and −1 (100 mg/kg). […] Examples 2, 4, 5, 6, 7, 8, 10, 11 and polymyxin B were prepared in Normal Saline at 2 mg/mL and the solution was adjusted to pH 6-7 by addition of 0.1M H2SO4 or 4.2% NaHCO3 as required. Twenty-four hours after infection, the mice were euthanized humanely. The muscle of the right thigh of each animal was harvested, homogenized, serially diluted and plated on Brain Heart Infusion agar+0.5% charcoal (w/v) for CFU determination. Decrease of the total CFU of right thigh as compared to control counts at 24 hrs post-infection was determined for each dose group. […] The in vivo efficacy of the compound of Example 14 was evaluated in a mouse thigh infection model of E. coli. using the methods described in the examples above. The result is summarized in Table 5A in comparison with Polymyxin B.

[6] = Table 4A, different batches of cation-adjusted Muller-Hinton broth

For `CC(C)C[C@@H]1NC(=O)[C@@H](Cc2ccccc2)NC(=O)[C@H](CCN)NC(=O)[C@@H](NC(=O)[C@H](CCN)NC(=O)[C@@H](NC(=O)CCCN)[C@@H](C)O)CCNC(=O)[C@H]([C@@H](C)O)NC(=O)[C@H](CCN)NC(=O)[C@H](CCN)NC1=O` [Example 6, 4-Aminobutanoyl Polymyxin B Nonapeptide, Sulphate Salt] (H-[GABA]T[Dab][Dab][Dab][dF]L[Dab][Dab]T; lactam 4-C), the “IC50 HK-2 cells” value (HK-2 cell line) was 154 µg/mL, the “MIC50 Clinical isolates” value [1] was 2 µg/mL and the “MIC50 Resistant strains” value [1] was 0.5 µg/mL. For the same molecule, the “MIC90 Clinical isolates” value [1] was 8 µg/mL, the “MIC90 Resistant strains” value [1] was 4 µg/mL and the “MIC Range Resistant strains” value [1] was 0.06 to 4 µg/mL. The “MIC50 Clinical isolates” value [2] was 0.25 µg/mL, the “MIC50 Resistant strains” value [2] was 0.5 µg/mL and the “MIC90 Clinical isolates” value [2] was 16 µg/mL. The “MIC90 Resistant strains” value [2] was 8 µg/mL, the “MIC Range Clinical isolates” value [2] was 0.06 to 64 µg/mL and the “MIC Range Resistant strains” value [2] was 0.12 to 16 µg/mL. For the same molecule, the “MIC50 Clinical isolates” value [3] was greater than 64 µg/mL, the “MIC50 Resistant strains” value [3] was greater than 64 µg/mL and the “MIC90 Clinical isolates” value [3] was greater than 64 µg/mL. For the same molecule, the “MIC90 Resistant strains” value [3] was greater than 64 µg/mL, the “MIC50 Clinical isolates” value [4] was 2 µg/mL and the “MIC50 Resistant strains” value [4] was 2 µg/mL. For the same molecule, the “MIC90 Clinical isolates” value [4] was 8 µg/mL, the “MIC90 Resistant strains” value [4] was 4 µg/mL and the “MIC Range Resistant strains” value [4] was 1 to 4 µg/mL.
With `CCCCCCC(O)C(=O)N[C@H](C(=O)N[C@@H](CCN)C(=O)N[C@H]1CCNC(=O)[C@H](C(C)O)NC(=O)[C@H](CCN)NC(=O)[C@H](CCN)NC(=O)[C@H](CC(C)C)NC(=O)[C@@H](Cc2ccccc2)NC(=O)[C@H](CCN)NC1=O)C(C)O` (stereo partly drawn) [Example 2, [2(R,S)-2-Hydroxyoctanoyl] Polymyxin B Nonapeptide, Sulphate Salt] (X1-[Thr(3ξ)][Dab][Dab][Dab][dF]L[Dab][Dab][Thr(3ξ)]; lactam 3-C) the MIC (A. baumannii ATCCBAA-747; Table 4) was 2 micrograms/mL, the MIC (A. baumannii ATCCBAA-747; [6]) was 2 micrograms/mL and the MIC (A. baumannii NCTC13423; Table 4) was 1 micrograms/mL. For the same molecule, the MIC (A. baumannii NCTC13423; [6]) was 1 micrograms/mL, the “MIC50 Clinical isolates” value [1] was 2 µg/mL and the “MIC50 Resistant strains” value [1] was 1 µg/mL. For the same molecule, the “MIC90 Clinical isolates” value [1] was 4 µg/mL, the “MIC90 Resistant strains” value [1] was 2 µg/mL and the “MIC Range Clinical isolates” value [1] was 1 to 16 µg/mL. The “MIC Range Resistant strains” value [1] was 0.5 to 4 µg/mL, the “MIC50 Clinical isolates” value [2] was 2 µg/mL and the “MIC50 Resistant strains” value [2] was 2 µg/mL. For the same molecule, the “MIC90 Clinical isolates” value [2] was 4 µg/mL, the “MIC90 Resistant strains” value [2] was 4 µg/mL and the “MIC Range Clinical isolates” value [2] was 1 to 8 µg/mL. The “MIC Range Resistant strains” value [2] was 1 to 4 µg/mL, the “MIC50 Clinical isolates” value [3] was 8 µg/mL and the “MIC50 Resistant strains” value [3] was 8 µg/mL. The “MIC90 Clinical isolates” value [3] was 32 µg/mL, the “MIC90 Resistant strains” value [3] was 32 µg/mL and the “MIC50 Clinical isolates” value [4] was 4 µg/mL. For the same molecule, the “MIC50 Resistant strains” value [4] was 4 µg/mL, the “MIC90 Clinical isolates” value [4] was 8 µg/mL and the “MIC90 Resistant strains” value [4] was 4 µg/mL. The “MIC Range Clinical isolates” value [4] was 1 to 32 µg/mL and the “MIC Range Resistant strains” value [4] was 2 to 4 µg/mL.
For Polymyxin B [reference compound], the “IC50 HK-2 cells” value (HK-2 cell line) was 11^b μg/mL, the MIC (A. baumannii ATCCBAA-747; Table 4) was 0.25 micrograms/mL and the MIC (A. baumannii ATCCBAA-747; [6]) was 0.125 micrograms/mL. For the same molecule, the MIC (A. baumannii NCTC13423; Table 4) was 0.25 micrograms/mL, the MIC (A. baumannii NCTC13423; [6]) was less than 0.06 micrograms/mL and the “Mean log10 CFU reduction vs. control” value ([5]; neutropenic CD-1 mice, total daily dosage 3 mg/kg (1.5 mg/kg BID) subcutaneous, 24 h post-infection, Table 5) was 2.5 ^a log10 CFU. For the same molecule, the “Mean log10 CFU reduction vs. control” value ([5]; neutropenic CD-1 mice, total daily dosage 10 mg/kg (5 mg/kg BID) subcutaneous, 24 h post-infection, Table 5) was 4.2 ^a log10 CFU, the “Mean log10 CFU reduction vs. control” value ([5]; neutropenic mice, total daily dosage 3 mg/kg, additional study, Table 5A) was 3.75 log10 CFU and the “Mean log10 CFU reduction vs. control” value ([5]; neutropenic mice, total daily dosage 10 mg/kg, additional study, Table 5A) was 4.87 log10 CFU.

Source: patent US9234006B2, “Compounds” (Novacta Biosystems Limited, priority 2011, dated 2016)
